This note sets out measurements from ChEMBL document CHEMBL1250451, “Mechanistic insights into a Ca2+-dependent family of alpha-mannosidases in a human gut symbiont” (Nat Chem Biol, 2010).

Holding throughout (assay type): protein assay
For test [1], the target named is T1, Alpha-1,2-mannosidase (BT_2199) (Bacteroides thetaiotaomicron) (UniProt Q8A5N9).
T1 sequence (whole entry): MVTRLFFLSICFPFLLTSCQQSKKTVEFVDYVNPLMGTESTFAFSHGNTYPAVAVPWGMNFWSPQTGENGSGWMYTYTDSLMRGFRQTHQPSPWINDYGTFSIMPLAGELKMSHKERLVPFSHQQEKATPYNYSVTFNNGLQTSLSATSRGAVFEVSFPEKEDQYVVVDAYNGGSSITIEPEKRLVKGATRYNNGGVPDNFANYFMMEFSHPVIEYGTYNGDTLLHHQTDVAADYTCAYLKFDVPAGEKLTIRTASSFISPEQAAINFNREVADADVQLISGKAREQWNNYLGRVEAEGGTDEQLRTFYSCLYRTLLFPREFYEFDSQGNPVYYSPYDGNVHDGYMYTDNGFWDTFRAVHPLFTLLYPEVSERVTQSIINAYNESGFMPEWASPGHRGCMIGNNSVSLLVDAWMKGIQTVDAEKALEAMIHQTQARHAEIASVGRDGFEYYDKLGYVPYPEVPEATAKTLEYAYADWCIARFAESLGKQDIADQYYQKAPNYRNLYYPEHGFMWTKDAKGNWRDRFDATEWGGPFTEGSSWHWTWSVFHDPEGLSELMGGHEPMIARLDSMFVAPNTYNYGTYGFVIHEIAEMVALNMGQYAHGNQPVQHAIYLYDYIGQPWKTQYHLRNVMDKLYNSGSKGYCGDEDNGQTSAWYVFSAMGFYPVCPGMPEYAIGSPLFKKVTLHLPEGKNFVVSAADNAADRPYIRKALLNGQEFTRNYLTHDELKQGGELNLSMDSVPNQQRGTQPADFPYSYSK
Put plainly: Activity of Bacteroides thetaiotaomicron GH92 alpha-mannosidase 2199 assessed as recovery of enzyme activity at 1 mM in presence of 7 mM Ca(2+) ions and in presence of 5 mM EDTA in 100 mM pH 7 MOPS buffer relative to enzyme activity in presence of calcium.

The target in test [2] is T2, Alpha-1,2-mannosidase (BT_3990) (Bacteroides thetaiotaomicron) (UniProt Q8A0N1).
T2 sequence (whole entry): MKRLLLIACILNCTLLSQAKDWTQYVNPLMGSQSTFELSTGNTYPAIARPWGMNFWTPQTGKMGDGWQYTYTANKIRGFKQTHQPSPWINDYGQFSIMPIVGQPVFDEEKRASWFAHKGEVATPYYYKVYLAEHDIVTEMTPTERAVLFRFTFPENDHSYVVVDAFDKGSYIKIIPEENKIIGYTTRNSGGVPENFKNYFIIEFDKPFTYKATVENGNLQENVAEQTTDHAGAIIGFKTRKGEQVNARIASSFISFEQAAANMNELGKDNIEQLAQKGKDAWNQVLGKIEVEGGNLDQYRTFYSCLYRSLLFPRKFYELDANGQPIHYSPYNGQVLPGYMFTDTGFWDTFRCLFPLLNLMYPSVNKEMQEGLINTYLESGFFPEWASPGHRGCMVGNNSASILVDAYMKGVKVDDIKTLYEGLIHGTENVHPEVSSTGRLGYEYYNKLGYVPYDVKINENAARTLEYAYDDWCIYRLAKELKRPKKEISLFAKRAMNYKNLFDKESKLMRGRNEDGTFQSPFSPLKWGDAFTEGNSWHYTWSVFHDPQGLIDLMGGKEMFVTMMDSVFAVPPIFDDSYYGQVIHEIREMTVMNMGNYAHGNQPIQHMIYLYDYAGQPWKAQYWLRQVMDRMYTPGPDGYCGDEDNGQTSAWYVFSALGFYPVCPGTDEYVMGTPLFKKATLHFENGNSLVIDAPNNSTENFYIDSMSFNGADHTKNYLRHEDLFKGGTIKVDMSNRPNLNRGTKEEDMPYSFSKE
Put plainly: Activity of Bacteroides thetaiotaomicron GH92 alpha-mannosidase 3990 assessed as recovery of enzyme activity at 1 mM in presence of 7 mM Mn(2+) ions and in presence of 5 mM EDTA in 100 mM pH 7 MOPS buffer relative to enzyme activity in presence of calcium.

For test [3], the target named is T1, Alpha-1,2-mannosidase (BT_2199) (Bacteroides thetaiotaomicron). Put plainly: Activity of Bacteroides thetaiotaomicron GH92 alpha-mannosidase 2199 assessed as recovery of enzyme activity at 1 mM in presence of 7 mM Mn(2+) ions and in presence of 5 mM EGTA in 100 mM pH 7 MOPS buffer relative to enzyme activity in presence of calcium.
In test [4] the target is T2, Alpha-1,2-mannosidase (BT_3990) (Bacteroides thetaiotaomicron). The experiment in a line: Activity of Bacteroides thetaiotaomicron GH92 alpha-mannosidase 3990 assessed as recovery of enzyme activity at 1 mM in presence of 7 mM V(3+) ions and in presence of 5 mM EDTA in 100 mM pH 7 MOPS buffer relative to enzyme activity in presence of calcium.
The target is the same in test [5]. Put plainly: Activity of Bacteroides thetaiotaomicron GH92 alpha-mannosidase 3990 assessed as recovery of enzyme activity at 1 mM in presence of 7 mM Be(2+) ions and in presence of 5 mM EGTA in 100 mM pH 7 MOPS buffer relative to enzyme activity in presence of calcium.
For test [6] the target is unchanged. The experiment in a line: Activity of Bacteroides thetaiotaomicron GH92 alpha-mannosidase 3990 assessed as recovery of enzyme activity at 1 mM in presence of 7 mM Mg(2+) ions and in presence of 5 mM EDTA in 100 mM pH 7 MOPS buffer relative to enzyme activity in presence of calcium.
In test [7] the target is T1, Alpha-1,2-mannosidase (BT_2199) (Bacteroides thetaiotaomicron). The experiment in a line: Activity of Bacteroides thetaiotaomicron GH92 alpha-mannosidase 2199 assessed as recovery of enzyme activity at 1 mM in absence of metal and in presence of 5 mM EGTA in 100 mM pH 7 MOPS buffer relative to enzyme activity in presence of calcium.
Test [8] shares this target. The experiment in a line: Activity of Bacteroides thetaiotaomicron GH92 alpha-mannosidase 2199 assessed as recovery of enzyme activity at 1 mM in presence of 7 mM Mn(2+) ions and in presence of 5 mM EDTA in 100 mM pH 7 MOPS buffer relative to enzyme activity in presence of calcium.
The target is the same in test [9]. Put plainly: Activity of Bacteroides thetaiotaomicron GH92 alpha-mannosidase 2199 assessed as recovery of enzyme activity at 1 mM in presence of 7 mM Be(2+) ions and in presence of 5 mM EGTA in 100 mM pH 7 MOPS buffer relative to enzyme activity in presence of calcium.
Test [10] has the same target. The experiment in a line: Activity of Bacteroides thetaiotaomicron GH92 alpha-mannosidase 2199 assessed as recovery of enzyme activity at 1 mM in presence of 7 mM V(3+) ions and in presence of 5 mM EGTA in 100 mM pH 7 MOPS buffer relative to enzyme activity in presence of calcium.
For test [11], the target named is T2, Alpha-1,2-mannosidase (BT_3990) (Bacteroides thetaiotaomicron). The experiment in a line: Activity of Bacteroides thetaiotaomicron GH92 alpha-mannosidase 3990 assessed as recovery of enzyme activity at 1 mM in presence of 7 mM Sr(2+) ions and in presence of 5 mM EDTA in 100 mM pH 7 MOPS buffer relative to enzyme activity in presence of calcium.
For test [12], the target named is T1, Alpha-1,2-mannosidase (BT_2199) (Bacteroides thetaiotaomicron). Put plainly: Activity of Bacteroides thetaiotaomicron GH92 alpha-mannosidase 2199 assessed as recovery of enzyme activity at 1 mM in presence of 7 mM Ca(2+) ions and in presence of 5 mM EGTA in 100 mM pH 7 MOPS buffer relative to enzyme activity in presence of calcium.

With `O=[N+]([O-])c1ccc(O[C@H]2O[C@H](CO)[C@@H](O)[C@H](O)[C@@H]2O)cc1`, the Activity in test [1] came to 100%; in [2], 13%; in test [3] it was 6%; in test [4], 0%; in test [5] it was 0%; in test [6] it was 0%. Moreover, the Activity in [7] came out at 0%; in test [8], 8%; in test [9], 0%; in [10] it was 0%; in test [11] it was 14%; in test [12], 100%.
